Measurements published in publication PMC12163085, “Targeting transcription factors through an IMiD independent zinc finger domain” (EMBO Molecular Medicine, 2025).
Each block holds one molecule with its values, some of them ahead of it.

Columns and labels:
[1] = tested on: T1, SNU387-Ev (SNU387 transduced with empty vector); assay: cells; design: species or system SNU398 and SNU387 isogenic lines; CellTiter-Glo luminescence viability dose response in 384-well plates, nonlinear regression; conditions: Homo sapiens, SNU-387; 72 h cell viability; read-out: EC50 / SNU387-EvLo
T1 construct: empty vector FUW-Luc-mCh-puro
Experimental: (§1) Empty vector, SALL4A, and SALL4B expressing isogenic cell lines were generated by transducing the SALL4 negative hepatocellular carcinoma SNU-387 cells with empty vector, SALL4A, or SALL4B FUW-Luc-mCh-puro lentiviral constructs. Cells were plated in 50 μl of RPMI culture media in 384-well white flat-bottom plates (Corning) and incubated at 37 °C in a humidified atmosphere of 5% CO2 overnight. Cell numbers per well were 1500 for SNU-398, and 750 for SNU-387 and SNU-387 isogenic lines. After overnight incubation, varying concentrations of compounds 1–80 were added to cells with multichannel electronic pipettes (Rainin). Cells were then incubated for 72 h at 37 °C in a humidified atmosphere of 5% CO2 before 10 μl of CellTiter-Glo reagent was added to the wells with the MultiFlo Microplate Dispenser (BioTek). Cells were incubated at room temperature for a minimum of 10 min, after which luminescence readings were recorded by an Infinite M1000 Microplate Reader (Tecan). Each data point was performed in n = 3 independent cell cultures. IC50 of compounds were determined using nonlinear regression fitting from Prism (GraphPad). Cell-based screening was next employed to evaluate the growth inhibitory activity of the test compounds against SALL4 expressing malignant cells. SNU398, a liver cancer cell line with high endogenous levels of SALL4, and SNU387, a liver cancer cell line with undetectable levels of SALL4, were used for comparison. Cells were incubated with the test compound at 1 μM for 72 h, after which cell viability was assessed. […] Next, we carried out dose escalation studies on all SH compounds to deduce their EC50 values on SNU387 and SNU398. In order to interrogate the effects of compounds targeting SALL4, we created isogenic cells by overexpressing SALL4A (SNU387-TgSALL4A) or SALL4B (SNU387-TgSALL4B) in SNU387 cells (Tan et al, [2019]) (Fig. 2B, and Dataset EV4). The EC50 of SH2, SH6, and SH7 in SALL4 high SNU398 cells were 0.4 μM, 0.5 μM, and 0.3 μM, respectively. In contrast, the EC50 values of the same compounds were more than 10 μM on SALL4 low SNU387 cells.

SNU387-TgSALL4A = tested on: T2, SNU387-TgSALL4A; assay: cells; design: species or system SNU398 and SNU387 isogenic lines; CellTiter-Glo luminescence viability dose response in 384-well plates, nonlinear regression; conditions: 72 h cell viability; read-out: EC50 / SNU387-TgSALL4AAHi
T2 construct: SNU387 overexpressing SALL4A (FUW-Luc-mCh-puro)
Experimental: as §1

SNU387-TgSALL4B = tested on: T3, SNU387-TgSALL4B; assay: cells; design: species or system SNU398 and SNU387 isogenic lines; CellTiter-Glo luminescence viability dose response in 384-well plates, nonlinear regression; conditions: 72 h cell viability; read-out: EC50 / SNU387-TgSALL4BBHi
T3 construct: SNU387 overexpressing SALL4B (FUW-Luc-mCh-puro)
Experimental: as §1

SNU387 = assay: cells; design: species or system SNU398 and SNU387 isogenic lines; CellTiter-Glo luminescence viability dose response in 384-well plates, nonlinear regression; conditions: Homo sapiens, SNU-387; 72 h cell viability; read-out: EC50 / SNU387Lo
Experimental: as §1

SNU398 = assay: cells; design: species or system SNU387, SNU398 and SNU387 isogenic lines; CellTiter-Glo luminescence viability dose response in 384-well plates, nonlinear regression; conditions: Homo sapiens, SNU-398; 72 h cell viability; read-out: EC50 / SNU398Hi
Experimental: as §1

CRBN (cereblon) = target: T4, CRBN (cereblon) (Homo sapiens, UniProt Q96SW2); assay: in-cell CETSA only ([…] SH6); assay type: cell-based
T4 construct: endogenous CRBN in SNU398 cells

hERG potassium channel = target: T5, hERG potassium channel (Homo sapiens, UniProt Q12809); assay: hERG channel block concentration-response; assay type: cell-based
T5 construct: gene KCNH2

CUL4A = target: T6, CUL4A (Homo sapiens, UniProt Q13619); assay: SPR (Biacore, immobilized CUL4A); supported by in-cell CETSA; assay type: binding
T6 construct: Recombinant CUL4A (Creative Biomart CUL4A-690H)

SNU387-EvLo = tested on: T7, SNU387-EvLo; assay: cells; design: species or system SNU-387, SNU-398 and SNU-387 isogenic lines; CellTiter-Glo luminescence cell viability, dose-response EC50; conditions: 72 h
T7 construct: SNU-387 empty vector control
Experimental: as §1

SNU387-TgSALL4AAHi = tested on: T8, SNU387-TgSALL4AAHi; assay: cells; design: species or system SNU-387, SNU-398 and SNU-387 isogenic lines; CellTiter-Glo luminescence cell viability, dose-response EC50; conditions: 72 h
T8 construct: SNU-387 overexpressing SALL4A
Experimental: as §1

SNU387-TgSALL4BBHi = tested on: T9, SNU387-TgSALL4BBHi; assay: cells; design: species or system SNU-387, SNU-398 and SNU-387 isogenic lines; CellTiter-Glo luminescence cell viability, dose-response EC50; conditions: 72 h
T9 construct: SNU-387 overexpressing SALL4B
Experimental: as §1

SNU387Lo = tested on: T10, SNU387Lo; assay: cells; design: species or system SNU-387, SNU-398 and SNU-387 isogenic lines; CellTiter-Glo luminescence cell viability, dose-response EC50; conditions: 72 h
T10 construct: SNU-387 hepatocellular carcinoma, SALL4 low
Experimental: as §1

SNU398Hi = tested on: T11, SNU398Hi; assay: cells; design: species or system SNU-387, SNU-398 and SNU-387 isogenic lines; CellTiter-Glo luminescence cell viability, dose-response EC50; conditions: 72 h
T11 construct: SNU-398 hepatocellular carcinoma, SALL4 high
Experimental: as §1

SALL4 ZFC4 = target: T12, SALL4 ZFC4 (human, UniProt Q9UJQ4); assay: X-ray crystallography (2.1 A); Zn2+; 500 uM protein with 750 uM DNA; Crystallization: protein in 20 mM HEPES pH 7.5, 200 mM NaCl, 0.5 mM TCEP, 1 mM DTT, 10 uM ZnCl2; mixed with equal volume of 30% PEG3350, 0.04 M NH4SO4, BisTris; conditions: protein: recombinant; tags: N-terminal GST, removed with thrombin (pGEX4T1); chain copies: 2; blunt
T12 sequence: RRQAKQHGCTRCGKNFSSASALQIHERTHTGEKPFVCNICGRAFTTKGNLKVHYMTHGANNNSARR

T5 sequence (Q12809 whole entry): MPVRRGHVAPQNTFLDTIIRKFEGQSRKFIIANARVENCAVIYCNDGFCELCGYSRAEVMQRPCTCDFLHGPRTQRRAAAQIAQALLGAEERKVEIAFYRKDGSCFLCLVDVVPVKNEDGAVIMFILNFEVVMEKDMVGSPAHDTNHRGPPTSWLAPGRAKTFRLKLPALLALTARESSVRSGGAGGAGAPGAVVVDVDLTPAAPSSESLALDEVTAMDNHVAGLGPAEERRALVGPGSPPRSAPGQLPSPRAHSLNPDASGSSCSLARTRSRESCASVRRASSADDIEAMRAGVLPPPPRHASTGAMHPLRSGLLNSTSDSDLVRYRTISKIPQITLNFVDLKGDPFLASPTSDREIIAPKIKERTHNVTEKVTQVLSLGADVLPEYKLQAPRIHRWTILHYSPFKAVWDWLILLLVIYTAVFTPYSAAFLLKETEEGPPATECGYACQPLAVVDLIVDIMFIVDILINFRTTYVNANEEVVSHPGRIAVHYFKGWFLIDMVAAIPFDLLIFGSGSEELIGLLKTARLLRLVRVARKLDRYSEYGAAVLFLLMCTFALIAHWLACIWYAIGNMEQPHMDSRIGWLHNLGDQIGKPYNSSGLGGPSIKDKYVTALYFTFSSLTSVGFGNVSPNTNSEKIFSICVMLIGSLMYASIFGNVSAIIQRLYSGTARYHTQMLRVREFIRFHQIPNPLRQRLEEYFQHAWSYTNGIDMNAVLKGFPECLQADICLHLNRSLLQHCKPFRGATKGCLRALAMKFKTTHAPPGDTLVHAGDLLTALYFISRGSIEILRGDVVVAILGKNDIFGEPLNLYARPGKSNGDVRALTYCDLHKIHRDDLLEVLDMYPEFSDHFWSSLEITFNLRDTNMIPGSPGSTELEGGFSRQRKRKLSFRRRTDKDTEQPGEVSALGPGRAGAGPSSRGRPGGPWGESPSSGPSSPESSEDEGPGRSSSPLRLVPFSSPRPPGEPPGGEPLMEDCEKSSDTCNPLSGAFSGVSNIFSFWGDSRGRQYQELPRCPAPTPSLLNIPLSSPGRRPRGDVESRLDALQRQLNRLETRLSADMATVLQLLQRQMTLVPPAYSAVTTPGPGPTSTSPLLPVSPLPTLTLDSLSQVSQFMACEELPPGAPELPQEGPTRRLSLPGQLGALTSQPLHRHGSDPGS
T6 sequence (Q13619 whole entry): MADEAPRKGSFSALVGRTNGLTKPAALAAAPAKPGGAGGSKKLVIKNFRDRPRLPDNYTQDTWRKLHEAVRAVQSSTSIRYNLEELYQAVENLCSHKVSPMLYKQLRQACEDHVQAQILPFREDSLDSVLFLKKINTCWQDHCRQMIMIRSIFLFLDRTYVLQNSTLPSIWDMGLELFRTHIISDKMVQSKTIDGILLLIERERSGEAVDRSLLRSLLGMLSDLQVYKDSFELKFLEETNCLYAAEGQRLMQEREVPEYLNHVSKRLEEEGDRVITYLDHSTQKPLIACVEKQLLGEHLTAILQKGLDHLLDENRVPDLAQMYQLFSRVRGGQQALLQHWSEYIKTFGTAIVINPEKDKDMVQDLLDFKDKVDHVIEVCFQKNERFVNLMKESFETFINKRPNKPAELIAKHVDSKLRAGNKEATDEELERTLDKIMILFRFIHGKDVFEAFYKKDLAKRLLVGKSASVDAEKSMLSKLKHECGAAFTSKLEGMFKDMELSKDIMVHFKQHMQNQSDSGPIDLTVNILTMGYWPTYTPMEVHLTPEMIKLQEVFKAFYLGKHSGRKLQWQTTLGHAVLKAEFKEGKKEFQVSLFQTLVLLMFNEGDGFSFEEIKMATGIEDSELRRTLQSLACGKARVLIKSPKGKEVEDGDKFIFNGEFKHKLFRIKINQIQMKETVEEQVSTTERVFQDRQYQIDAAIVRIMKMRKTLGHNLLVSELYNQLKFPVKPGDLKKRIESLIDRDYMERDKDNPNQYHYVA
T4 sequence (Q96SW2 whole entry): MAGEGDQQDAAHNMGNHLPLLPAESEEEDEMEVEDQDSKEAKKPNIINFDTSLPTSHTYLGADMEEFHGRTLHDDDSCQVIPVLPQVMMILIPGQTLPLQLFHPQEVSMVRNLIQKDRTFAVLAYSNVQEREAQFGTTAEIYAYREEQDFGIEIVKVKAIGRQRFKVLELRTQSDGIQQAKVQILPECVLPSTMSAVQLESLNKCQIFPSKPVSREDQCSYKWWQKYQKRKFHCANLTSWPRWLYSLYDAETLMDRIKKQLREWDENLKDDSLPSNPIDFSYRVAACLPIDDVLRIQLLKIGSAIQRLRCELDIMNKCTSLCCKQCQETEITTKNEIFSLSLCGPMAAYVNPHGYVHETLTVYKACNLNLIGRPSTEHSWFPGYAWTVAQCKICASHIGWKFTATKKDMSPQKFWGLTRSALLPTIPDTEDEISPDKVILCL

EC50 [1]: > 10 µM | EC50 (SNU387-TgSALL4A): 1.3 µM | EC50 (SNU387-TgSALL4B): 0.4 µM | EC50 (SNU387): > 30 µM | EC50 (SNU398): 0.4 µM
Molecule: COc1ccc(N)c(NC(=O)/C=C/c2cccnc2Nc2cc(OC)c(OC)c(OC)c2)c1 [SH2]

Kd (CUL4A): ~89 µM
Molecule: COc1cc(Nc2ncccc2/C=C/C(=O)Nc2ccc(Cl)cc2N)cc(OC)c1OC [SH6, (2E)-N-(2-amino-4-chlorophenyl)-3-[2-(3,4,5-trimethoxyanilino)pyridin-3-yl] prop-2-enamide]
in-cell CETSA only (50 μM SH6) (CRBN (cereblon)): higher thermal stability (less unfolding) of CUL4, CRBN, and SALL4 (Fig. 3F), implicating these proteins as binding partners of SH6 | IC50 (hERG potassium channel): 22.2 µM

EC50 [1]: > 10 µM | EC50 (SNU387-TgSALL4A): 1 µM | EC50 (SNU387-TgSALL4B): 0.3 µM | EC50 (SNU387): ~30 µM | EC50 (SNU398): 0.3 µM
Molecule: COc1cc(Nc2ncccc2/C=C/C(=O)Nc2cc(Cl)c(Cl)cc2N)cc(OC)c1OC [SH7]

EC50 (SNU387-EvLo): > 10 µM | EC50 (SNU387-TgSALL4AAHi): > 10 µM | EC50 (SNU387-TgSALL4BBHi): > 10 µM | EC50 (SNU387Lo): > 30 µM | EC50 (SNU398Hi): > 30 µM
Molecule: Nc1ccc(F)cc1NC(=O)c1cccnc1Nc1ccc(F)cc1 [SH61]

EC50 (SNU387): > 30 µM | EC50 (SNU398): ~30 µM
Molecule: Cc1cc(N)c(NC(=O)c2cccnc2Nc2ccc(Cl)cc2)cc1C [SH76]

EC50 (SNU387): > 30 µM | EC50 (SNU398): ~25 µM
Molecule: Nc1ccc(F)cc1NC(=O)c1cccnc1Nc1ccc(Cl)cc1 [SH77]

EC50 (SNU387): > 30 µM | EC50 (SNU398): ~25 µM
Molecule: Nc1ccc(Cl)cc1NC(=O)c1cccnc1Nc1ccc(Cl)cc1 [SH78]

EC50 (SNU387): > 30 µM | EC50 (SNU398): ~20 µM
Molecule: Nc1cc(Cl)c(Cl)cc1NC(=O)c1cccnc1Nc1ccc(Cl)cc1 [SH79]

EC50 (SNU387): > 30 µM | EC50 (SNU398): > 30 µM
Molecule: O=C(NO)c1cccnc1Nc1ccc(Cl)cc1 [SH80]

B1: 12-mer TATTA SALL4 motif duplex (dsDNA)
DNA 1: CGAAATATTAGC
DNA 2: GCTAATATTTCG
binding result (SALL4 ZFC4): binds
